ChEMBL document CHEMBL1147531, “Farnesyloxycoumarins, a new class of squalene-hopene cyclase inhibitors” (Bioorg Med Chem Lett, 2004)

target: T1, Squalene--hopene cyclase (Alicyclobacillus acidocaldarius subsp. acidocaldarius (strain ATCC27009 / DSM 446 / 104-1A) (Bacillus acidocaldarius), UniProt P33247); experiment: Inhibitory activity against squalene hopene cyclase from Alicyclobacillus acidocaldarius expressed in Escherichia coli
T1 sequence (P33247 whole entry): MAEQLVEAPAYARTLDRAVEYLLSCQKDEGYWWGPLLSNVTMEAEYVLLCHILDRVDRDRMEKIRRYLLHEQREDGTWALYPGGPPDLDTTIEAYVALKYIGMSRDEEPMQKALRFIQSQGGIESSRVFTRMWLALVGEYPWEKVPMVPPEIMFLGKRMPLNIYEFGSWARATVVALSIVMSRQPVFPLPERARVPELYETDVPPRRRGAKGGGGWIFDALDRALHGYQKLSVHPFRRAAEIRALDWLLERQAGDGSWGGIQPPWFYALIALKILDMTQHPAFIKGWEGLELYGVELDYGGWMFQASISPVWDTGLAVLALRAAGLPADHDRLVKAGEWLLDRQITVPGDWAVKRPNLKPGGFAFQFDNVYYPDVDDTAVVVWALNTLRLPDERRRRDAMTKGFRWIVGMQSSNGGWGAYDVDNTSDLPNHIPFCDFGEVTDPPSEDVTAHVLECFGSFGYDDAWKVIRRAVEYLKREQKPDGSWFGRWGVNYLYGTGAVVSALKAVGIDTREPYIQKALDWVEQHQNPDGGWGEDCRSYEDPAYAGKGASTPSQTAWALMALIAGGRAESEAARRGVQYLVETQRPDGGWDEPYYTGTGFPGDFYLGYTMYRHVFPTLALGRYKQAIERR

Row | IC50 [µM] | Compound
1 | 7 | C/C(=C\COc1ccc2ccc(=O)oc2c1)CC[C@H]1C2(C)CC[C@@H](O2)C1(C)C (single isomer, unassigned) [FARNESIFEROL C]
2 | 1.5 | C/C(=C\COc1ccc2ccc(=O)oc2c1)CCC1OC1(C)CCC1OC1(C)C (centres undefined)
3 | 100 | CC(=O)Oc1ccc2c(OC(C)=O)c(C/C=C(\C)CC/C=C(\C)CCC3OC3(C)C)c(=O)oc2c1 (centres undefined)
4 | 2.5 | C/C(=C\COc1ccc2ccc(=O)oc2c1)CC/C=C(\C)CCC1OC1(C)C (centres undefined)
5 | 65 | C/C(=C\COc1ccc2ccc(=O)oc2c1)CC/C=C(\C)CCC(O)C(C)(C)O (centres undefined)
6 | 70 | CC(C)=CCC/C(C)=C/CC/C(C)=C/COc1ccc2ccc(=O)oc2c1 [UMBELLIPRENIN]
7 | 67 | C/C(=C\COc1cc2oc(=O)ccc2cc1O)CC/C=C(\C)CCC1OC1(C)C (centres undefined)

Row | Compound | IC50 [µM]
8 | CC(C)=CCC/C(C)=C/CC/C(C)=C/Cc1c(O)c2ccccc2oc1=O | 90

target: T2, Squalene--hopene cyclase (Alicyclobacillus acidocaldarius subsp. acidocaldarius (strain ATCC27009 / DSM 446 / 104-1A) (Bacillus acidocaldarius)) (UniProt P33247); experiment: IInhibitory activity against squalene hopene cyclase from Alicyclobacillus acidocaldarius expressed in Escherichia coli at a concentration of 100 uM
T2 sequence (whole entry): T1 sequence (P33247 whole entry)

Row | inhibition [%] | Compound
9 | 38 | CC(=O)Oc1ccc2c(OC(C)=O)c(C/C=C(\C)CCC3OC3(C)CCC3OC3(C)C)c(=O)oc2c1 (centres undefined)

target: T1, Squalene--hopene cyclase; experiment: Inhibitory activity against squalene hopene cyclase from Alicyclobacillus acidocaldarius expressed in Escherichia coli at a concentration of 100 uM; n.a. = not active

Row | IC50 | Compound
10 | Not Active | CC1(C)[C@H]2CC[C@](C)(O)[C@@H](COc3ccc4ccc(=O)oc4c3)[C@]2(C)CC[C@@H]1O
11 | Not Active | CC(=O)O[C@H]1CC[C@]2(C)[C@H](CC[C@](C)(O)[C@H]2COc2ccc3ccc(=O)oc3c2)C1(C)C
12 | Not Active | CC1(C)C(=O)CC[C@]2(C)[C@@H]1CC[C@](C)(O)[C@H]2COc1ccc2ccc(=O)oc2c1
13 | Not Active | C=C1CC[C@@H]2C(C)(C)C(=O)CC[C@@]2(C)[C@@H]1COc1ccc2ccc(=O)oc2c1
14 | Not Active | CC(C)=CCC/C(C)=C/CC/C(C)=C/COc1cc(=O)oc2ccccc12
15 | Not Active | C=C1CC[C@@H]2C(C)(C)[C@H](O)CC[C@@]2(C)[C@@H]1COc1ccc2ccc(=O)oc2c1
16 | Not Active | CC(C)=CCC/C(C)=C/CC/C(C)=C/Cc1c(O)oc2cc(O)ccc2c1=O

target: T2, Squalene--hopene cyclase (Alicyclobacillus acidocaldarius subsp. acidocaldarius (strain ATCC27009 / DSM 446 / 104-1A) (Bacillus acidocaldarius)); experiment: Inhibitory activity against squalene hopene cyclase from Alicyclobacillus acidocaldarius expressed in Escherichia coli at a concentration of 100 uM

Row | inhibition [%] | Compound
17 | 40 | C/C(=C\COc1cc(=O)oc2ccccc12)CC/C=C(\C)CCC1OC1(C)C (centres undefined)
18 | 46 | CC(=O)Oc1cc2ccc(=O)oc2cc1OC/C=C(\C)CC/C=C(\C)CCC1OC1(C)C (centres undefined)
19 | 7 | CC(=O)Oc1cc2ccc(=O)oc2cc1OC/C=C(\C)CCC1OC1(C)CCC1OC1(C)C (centres undefined)
